Test results from patent publication US8309558B2, “Compounds for the treatment of hepatitis C” (Bristol-Myers Squibb Company, priority 2008, dated 2012).
pEC50, pIC50: −log10 of the molar value. Where two headings read alike, the source gives them in different places.

What was measured:
[1] = target: T1, HCV NS5B RdRp genotype 1b (Hepatitis C virus genotype 1b, UniProt Q9WMX2); experiment: Standard HCV NS5B RdRp enzyme assay; format: biochemical; details: HCV NS5B RdRp genotype 1b, read-out: IC50
T1 construct: The protein was expressed with an 18 amino acid C-terminal truncation to enhance the solubility; made in house; host or cells: E. coli BL21(DE3), pET21a vector
Outline: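 Radiometric SPA measuring 3H-UMP incorporation on polyA/biotin-oligo-dT12 (6 nM/180 nM), 0.29 μM total UTP. Enzyme: NS5B 1b lacking last 18 residues, 28 nM final, 30° C for 60 min in 20 mM Hepes pH 7.5, 2.5 mM MgCl2, 2% DMSO. IC50 from seven-point curves.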

HCV replicon cells = experiment: HCV replicon FRET / luciferase assay (96-well plates); format: cell-based; details: Hepatitis C virus, HCV replicon, read-out: EC50
Outline: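 Percent activity is background-subtracted signal relative to untreated cell wells, with background taken from maximal protease-inhibitor wells. Cytotoxicity is Alamar blue fluorescence relative to controls. Replicon inhibition was read by NS3 FRET peptide cleavage (340/490 nm) or luciferase.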

T1 sequence (Q9WMX2 2420-2992): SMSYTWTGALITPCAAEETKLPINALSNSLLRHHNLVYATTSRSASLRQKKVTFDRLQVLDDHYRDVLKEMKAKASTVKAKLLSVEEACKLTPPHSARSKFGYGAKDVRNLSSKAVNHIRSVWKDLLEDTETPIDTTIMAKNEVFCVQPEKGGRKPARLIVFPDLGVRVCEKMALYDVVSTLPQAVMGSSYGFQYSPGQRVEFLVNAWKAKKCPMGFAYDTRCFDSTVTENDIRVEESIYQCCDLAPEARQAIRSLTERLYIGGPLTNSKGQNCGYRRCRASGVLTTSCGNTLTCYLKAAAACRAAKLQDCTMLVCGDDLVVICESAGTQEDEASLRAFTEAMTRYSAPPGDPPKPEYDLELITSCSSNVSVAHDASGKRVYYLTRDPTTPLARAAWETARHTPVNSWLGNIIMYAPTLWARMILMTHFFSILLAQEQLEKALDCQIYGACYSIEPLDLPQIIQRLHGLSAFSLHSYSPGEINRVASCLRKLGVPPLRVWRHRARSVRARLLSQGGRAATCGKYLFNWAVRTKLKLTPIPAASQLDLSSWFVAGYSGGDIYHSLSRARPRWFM

| Structure (SMILES) | pIC50 ([1]; Table 1a) | pEC50 (HCV replicon cells; Table 1a) | pIC50 ([1]; Table 1b) | pEC50 (HCV replicon cells; Table 1b) |
| --- | --- | --- | --- | --- |
| CNC(=O)c1c(-c2ccc(F)cc2)oc2ccc(-c3cccc(C(=O)NC(C)C)c3)cc12 | > 6.60 | > 6.60 |  |  |
| CNC(=O)c1c(-c2ccc(F)cc2)oc2ccc(-c3cccc(C(=O)NC(C)c4ccccc4)c3)cc12 (stereo not shown) | > 6.60 | > 6.60 |  |  |
| CNC(=O)c1c(-c2ccc(F)cc2)oc2ccc(-c3cccc(C(=O)NC4CCC(C)CC4)c3)cc12 (stereo not shown) | > 6.60 | > 6.60 |  |  |
| CNC(=O)c1c(-c2ccc(F)cc2)oc2ccc(-c3cccc(C(=O)NC4CCC4)c3)cc12 | > 6.60 | > 6.60 |  |  |
| CNC(=O)c1c(-c2ccc(F)cc2)oc2ccc(-c3cccc(C(=O)Nc4cc(C)ccn4)c3)cc12 | 6.00 to 6.60 | > 6.60 |  |  |
| CNC(=O)c1c(-c2ccc(F)cc2)oc2ccc(-c3cccc(C(=O)Nc4ccccc4O)c3)cc12 | > 6.60 | > 6.60 |  |  |
| CNC(=O)c1c(-c2ccc(F)cc2)oc2ccc(-c3cccc(C(=O)Nc4cccnc4)c3)cc12 | > 6.60 | > 6.60 |  |  |
| CNC(=O)c1c(-c2ccc(F)cc2)oc2ccc(-c3cccc(C(=O)Nc4ccc(C)cn4)c3)cc12 | > 6.60 | > 6.60 |  |  |
| CNC(=O)c1c(-c2ccc(F)cc2)oc2ccc(-c3cccc(C(=O)Nc4ccccn4)c3)cc12 | > 6.60 | > 6.60 |  |  |
| CNC(=O)c1c(-c2ccc(F)cc2)oc2ccc(-c3cccc(C(=O)NC(C)c4ccc(F)cc4)c3)cc12 (stereo not shown) | > 6.60 | > 6.60 |  |  |
| CNC(=O)c1c(-c2ccc(F)cc2)oc2ccc(-c3cccc(C(=O)N[C@@H](C)c4ccc(F)cc4)c3)cc12 | > 6.60 | > 6.60 |  |  |
| CNC(=O)c1c(-c2ccc(F)cc2)oc2ccc(-c3cccc(C(=O)N[C@H](C)c4ccc(F)cc4)c3)cc12 | > 6.60 | > 6.60 |  |  |
| CNC(=O)c1c(-c2ccc(F)cc2)oc2ccc(-c3cccc(C(=O)NC(C)(C)c4ccc(F)cc4)c3)cc12 | > 6.60 | > 6.60 |  |  |
| CNC(=O)c1c(-c2ccc(F)cc2)oc2ccc(-c3cccc(C(=O)NC(C)(C)c4ccccc4)c3)cc12 | > 6.60 | > 6.60 |  |  |
| CNC(=O)c1c(-c2ccc(F)cc2)oc2ccc(-c3cccc(C(=O)Nc4ccncc4)c3)cc12 | > 6.60 | > 6.60 |  |  |
| CNC(=O)c1c(-c2ccc(F)cc2)oc2ccc(-c3cccc(C(=O)Nc4ccccc4)c3)cc12 | > 6.60 | > 6.60 |  |  |
| CNC(=O)c1c(-c2ccc(F)cc2)oc2ccc(-c3cccc(C(=O)Nc4cccc(C#N)c4)c3)cc12 | 6.00 to 6.60 | > 6.60 |  |  |
| CNC(=O)c1c(-c2ccc(F)cc2)oc2ccc(-c3cccc(C(=O)Nc4cnccn4)c3)cc12 | > 6.60 | > 6.60 |  |  |
| CNC(=O)c1c(-c2ccc(F)cc2)oc2ccc(-c3cccc(C(=O)Nc4ccc(OC)cc4)c3)cc12 | > 6.60 | > 6.60 |  |  |
| CNC(=O)c1c(-c2ccc(F)cc2)oc2ccc(-c3ccc(Cl)c(C(=O)NC(C)(C)c4ccccc4)c3)cc12 | > 6.60 | > 6.60 |  |  |
| CNC(=O)c1c(-c2ccc(F)cc2)oc2ccc(-c3cccc(C(=O)NC4(c5ccccc5)CCC4)c3)cc12 | > 6.60 | > 6.60 |  |  |
| CNC(=O)c1c(-c2ccc(F)cc2)oc2ccc(-c3cc(C(=O)NCC(C)C)ccc3OC)cc12 | > 6.60 | > 6.60 |  |  |
| CNC(=O)c1c(-c2ccc(F)cc2)oc2ccc(-c3ccc(C(=O)NCCOC)cc3)cc12 | < 5.00 | < 5.00 |  |  |
| CNC(=O)c1c(-c2ccc(F)cc2)oc2ccc(-c3cc(C(=O)O)ccc3Cl)cc12 | 5.00 to 6.00 | < 5.00 |  |  |
| CNC(=O)c1c(-c2ccc(F)cc2)oc2ccc(-c3ccc(Cl)c(C(=O)O)c3)cc12 | 5.00 to 6.00 | < 5.00 |  |  |
| CNC(=O)c1c(-c2ccc(F)cc2)oc2ccc(-c3cccc(C(=O)NC(CO)CO)c3)cc12 | 5.00 to 6.00 | < 5.00 |  |  |
| CNC(=O)c1c(-c2ccc(F)cc2)oc2ccc(-c3cccc(C(=O)Nc4cccc(C(=O)O)c4O)c3)cc12 | 6.00 to 6.60 | < 5.00 |  |  |

| Structure (SMILES) | pIC50 ([1]; Table 1a) | pEC50 (HCV replicon cells; Table 1a) | pIC50 ([1]; Table 1b) | pEC50 (HCV replicon cells; Table 1b) |
| --- | --- | --- | --- | --- |
| CNC(=O)c1c(-c2ccc(F)cc2)oc2ccc(-c3cccc(C(=O)Nc4c(O)ncnc4O)c3)cc12 | 6.00 to 6.60 | < 5.00 |  |  |
| CNC(=O)c1c(-c2ccc(F)cc2)oc2ccc(-c3cccc(C(=O)N[C@@H](CO)C(N)=O)c3)cc12 | 5.00 to 6.00 | < 5.00 |  |  |
| CNC(=O)c1c(-c2ccc(F)cc2)oc2ccc(-c3cccc(C(=O)N(C)c4ccncc4)c3)cc12 | 5.00 to 6.00 | < 5.00 |  |  |
| CNC(=O)c1c(-c2ccc(F)cc2)oc2ccc(-c3cccc(C(=O)NC(C)CC(=O)O)c3)cc12 (stereo not shown) | 6.00 to 6.60 | < 5.00 |  |  |
| CNC(=O)c1c(-c2ccc(F)cc2)oc2ccc(-c3cccc(C(=O)Nc4cccc(CC(=O)O)c4)c3)cc12 | > 6.60 | < 5.00 |  |  |
| CNC(=O)c1c(-c2ccc(F)cc2)oc2ccc(-c3cccc(C(=O)Nc4n[nH]cc4C(N)=O)c3)cc12 | 5.00 to 6.00 | < 5.00 |  |  |
| CCOC(=O)[C@@H]1CCCN1C(=O)c1cccc(-c2ccc3oc(-c4ccc(F)cc4)c(C(=O)NC)c3c2)c1 | 5.00 to 6.00 | < 5.00 |  |  |
| CNC(=O)c1c(-c2ccc(F)cc2)oc2ccc(-c3cccc(C(=O)Nn4c(C)nnc4C)c3)cc12 | 6.00 to 6.60 | < 5.00 |  |  |
| CNC(=O)c1c(-c2ccc(F)cc2)oc2ccc(-c3cccc(C(=O)Nc4cncc(C(=O)O)c4)c3)cc12 | 6.00 to 6.60 | < 5.00 |  |  |
| C=CCOC(=O)[C@H](C)NC(=O)c1cccc(-c2ccc3oc(-c4ccc(F)cc4)c(C(=O)NC)c3c2)c1 | > 6.60 | < 5.00 |  |  |
| CNC(=O)c1c(-c2ccc(F)cc2)oc2cc([N+](=O)[O-])c(-c3cccc(C(=O)O)c3)cc12 | 5.00 to 6.00 | < 5.00 |  |  |
| CNC(=O)c1c(-c2ccc(F)cc2)oc2ccc(-c3cccc(C(=O)NC4(C(=O)NS(=O)(=O)C5CC5)CC4)c3)cc12 | > 6.60 | < 5.00 |  |  |
| C=C[C@@H]1C[C@]1(NC(=O)c1cccc(-c2ccc3oc(-c4ccc(F)cc4)c(C(=O)NC)c3c2)c1)C(=O)NS(=O)(=O)C1CC1 | 6.00 to 6.60 | < 5.00 |  |  |
| CNC(=O)c1c(-c2ccc(F)cc2)oc2ccc(-c3cccc(C(=O)NS(C)(=O)=O)c3)cc12 | 6.00 to 6.60 | < 5.00 |  |  |
| CNC(=O)c1c(-c2ccc(F)cc2)oc2ccc(-c3cccc(C(=O)NC(C)(C)C(=O)O)c3)cc12 | 6.00 to 6.60 | < 5.00 |  |  |
| CN1CN(C)c2c(-c3cccc(C(=O)NC(C)(C)c4ccccc4)c3)ccc3oc(-c4ccc(F)cc4)c(c23)C1=O | < 5.00 | < 5.00 |  |  |
| CNC(=O)c1c(-c2ccc(F)cc2)oc2ccc(-c3cccc(S(=O)(=O)NC(C)(C)C)c3)cc12 | < 5.40 | < 5.00 |  |  |
| CNC(=O)c1c(-c2ccc(F)cc2)oc2ccc(-c3cccc(S(=O)(=O)NC(C)C)c3)cc12 | < 5.00 | < 5.00 |  |  |
| CNC(=O)c1c(-c2ccc(F)cc2)oc2ccc(-c3cccc(S(=O)(=O)NC4CC4)c3)cc12 | < 5.00 | < 5.00 |  |  |
| CNC(=O)c1c(-c2ccc(F)cc2)oc2ccc(-c3cccc(S(=O)(=O)N4CCOCC4)c3)cc12 | < 5.00 | < 5.00 |  |  |
| CNC(=O)c1c(-c2ccc(F)cc2)oc2ccc(-c3cccc(S(=O)(=O)NCc4ccccc4)c3)cc12 | < 5.00 | < 5.00 |  |  |
| CNC(=O)c1c(-c2ccc(F)cc2)oc2ccc(-c3cccc(S(=O)(=O)NCCO)c3)cc12 | 5.00 to 6.00 | < 5.00 |  |  |
| CNC(=O)c1c(-c2ccc(F)cc2)oc2ccc(-c3cccc(C(=O)N4Cc5ccccc5C4)c3)cc12 | < 6.40 | < 5.00 |  |  |
| CNC(=O)c1c(-c2ccc(F)cc2)oc2cc(NS(C)(=O)=O)c(-c3cc(C(=O)NC4(c5ccccc5)CC4)ccc3F)cc12 |  |  | > 6.60 | > 6.60 |
| CCC(NC(=O)c1ccc(F)c(-c2cc3c(C(=O)NC)c(-c4ccc(F)cc4)oc3cc2NS(C)(=O)=O)c1)c1ccccc1 (stereo not shown) |  |  | > 6.60 | > 6.60 |
| CNC(=O)c1c(-c2ccc(F)cc2)oc2ccc(-c3cccc(C(=O)NC4(c5ccccc5)CC4)c3OC)cc12 |  |  | < 5.00 | < 5.00 |
